Assay results reported in patent US11623944B2, “Paenibacillus strain, antifungal compounds, and methods for their use” (Bayer CropScience LP, priority 2015, dated 2023).

Tested on: Paenibacillus sp. strain NRRL B-50972
Test: Antibiotic sensitivity on sLB agar
Format: cell-based
Conditions: growth after 24, 48, 72 hours at 30° C.

Molecule | Sensitive/Resistant (antibiotic 10 μg/mL) | Sensitive/Resistant (antibiotic 25 μg/mL)
Polymyxin B | Resistant | –
CCn1cc(C(=O)O)c(=O)c2ccc(C)nc21 [Nalidixic acid] | – | Sensitive
